From the supplement of paper PMC11061612

Columns and labels:
Assay in all cases: Bliss excess, mean over the matrix (fraction); higher = more synergy
[1] = tested on: PA-TU-8988T (Pancreatic Carcinoma)
Procedure, shortened: (§1)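 Cell lines in DMEM/F12 or RPMI with 10% FBS were plated in 1536-well plates, held 24 hours at 37°C, 5% CO2, then given two-drug dose matrices for 72 hours (DMSO typically 0.2%). Viability was read by CellTiter-Glo 2.0 luminescence and scaled as inhibition from 0 (vehicle wells) to 1 (blank wells). Combination Emax is the second-highest inhibition in the matrix; Bliss excess is observed combination effect minus expected EA + EB − EA·EB, EA and EB being single-agent effects.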

NB1 (Neuroblastoma) = tested on: NB1 (Neuroblastoma)
Procedure, shortened: as §1

NCI-H226 (Mesothelioma) = tested on: NCI-H226 (Mesothelioma)
Procedure, shortened: as §1

[2] = tested on: P30-OHK (B-Lymphoblastic Leukemia)
Procedure, shortened: as §1

[3] = tested on: COR-L88 (Small Cell Lung Carcinoma)
Procedure, shortened: as §1

[4] = tested on: NCI-H1876 (Small Cell Lung Carcinoma)
Procedure, shortened: as §1

GAK (Melanoma) = tested on: GAK (Melanoma)
Procedure, shortened: as §1

[5] = tested on: OAW-28 (Ovarian Carcinoma)
Procedure, shortened: as §1

[6] = tested on: LS-1034 (Colorectal Carcinoma)
Procedure, shortened: as §1

[7] = tested on: P32-ISH (Burkitt's Lymphoma)
Procedure, shortened: as §1

ES6 (Ewing's Sarcoma) = tested on: ES6 (Ewing's Sarcoma)
Procedure, shortened: as §1

[8] = tested on: C-33-A (Cervical Carcinoma)
Procedure, shortened: as §1

[9] = tested on: OVCAR-3 (Ovarian Carcinoma)
Procedure, shortened: as §1

T47D (Breast Carcinoma) = tested on: T47D (Breast Carcinoma)
Procedure, shortened: as §1

[10] = tested on: DBTRG-05MG (Glioblastoma)
Procedure, shortened: as §1

[11] = tested on: HT-1080 (Other Solid Carcinomas)
Procedure, shortened: as §1

[12] = tested on: CPC-N (Small Cell Lung Carcinoma)
Procedure, shortened: as §1

[13] = tested on: MOLP-8 (Plasma Cell Myeloma)
Procedure, shortened: as §1

SK-N-SH (Neuroblastoma) = tested on: SK-N-SH (Neuroblastoma)
Procedure, shortened: as §1

[14] = tested on: MM1S (Plasma Cell Myeloma)
Procedure, shortened: as §1

SMILES	Bliss excess [1]	Bliss excess (NB1 (Neuroblastoma))	Bliss excess (NCI-H226 (Mesothelioma))	Bliss excess [2]	Bliss excess [3]	Bliss excess [4]	Bliss excess (GAK (Melanoma))	Bliss excess [5]	Bliss excess [6]	Bliss excess [7]	Bliss excess (ES6 (Ewing's Sarcoma))	Bliss excess [8]	Bliss excess [9]	Bliss excess (T47D (Breast Carcinoma))	Bliss excess [10]	Bliss excess [11]	Bliss excess [12]	Bliss excess [13]	Bliss excess (SK-N-SH (Neuroblastoma))	Bliss excess [14]
CN(C)CCCOc1ccc(-c2ccc3ncc4c(c3c2)n(C2CCOCC2)c(=O)n4C)cn1 [AZD0156] + C=CCn1c(=O)c2cnc(Nc3ccc(N4CCN(C)CC4)cc3)nc2n1-c1cccc(C(C)(C)O)n1 [AZD1775] (first compound max 1 µM, partner max 1 µM)	-0.0504	-0.0109	-0.0862	0.0179	-0.0013	0.0171	-0.0058	-0.0386	-0.0318	-0.011	-0.0501	-0.0461	-0.02	0.0108	-0.0489	-0.0316	-0.0025	-0.0739	-0.0533	-0.0653
CN(C)CCCOc1ccc(-c2ccc3ncc4c(c3c2)n(C2CCOCC2)c(=O)n4C)cn1 [AZD0156] + CCN(CCO)CCCOc1ccc2c(Nc3cc(CC(=O)Nc4cccc(F)c4)[nH]n3)ncnc2c1 [AZD2811] (first compound max 1 µM, 7x7, partner max 1 µM)	0.0079	-0.0137	-0.0676	-0.0439	-0.0279	-0.0557	-0.0025	-0.0061	-0.0261	-0.0042	-0.0766	-0.0142	-0.01	-0.0062	-0.0453	-0.0159	0.0049	-0.0308	-0.0133	0.0135
CN(C)CCCOc1ccc(-c2ccc3ncc4c(c3c2)n(C2CCOCC2)c(=O)n4C)cn1 [AZD0156] + C[C@@H]1COCCN1C2=NC(=NC(=C2)C3(CC3)[S@](=N)(=O)C)C4=C5C=CNC5=NC=C4 [AZD6738] (first compound max 1 µM, 7x7, partner max 10 µM)	0.0423	0.0522	-0.0581	0.0152	0.0772	0.0226	0.0448	-0.0279	0.0161	0.0435	-0.0076	0.0157	0.0353	-0.0223	-0.022	0.02	0.0316	0.0203	-0.115	0.0173
CN(C)CCCOc1ccc(-c2ccc3ncc4c(c3c2)n(C2CCOCC2)c(=O)n4C)cn1 [AZD0156] + O=C(c1cc(Cc2n[nH]c(=O)c3ccccc23)ccc1F)N1CCN(C(=O)C2CC2)CC1 [Olaparib] (first compound max 3 µM, partner max 3 µM)	0.0235	-0.0721	-0.0594	0.262	-0.193	0.103	0.0131	0.0871	0.0657	0.211	-0.005	0.0868	-0.0371	0.0296	-0.0207	-0.0054	0.0237	0.0151	-0.0043	0.0231
C=CCn1c(=O)c2cnc(Nc3ccc(N4CCN(C)CC4)cc3)nc2n1-c1cccc(C(C)(C)O)n1 [AZD1775] + C1CN(CCC1(C(=O)N[C@@H](CCO)C2=CC=C(C=C2)Cl)N)C3=NC=NC4=C3C=CN4 [Capivasertib] (first compound max 3 µM, partner max 3 µM)	-0.0264	-0.0592	-0.0662	0.0697	-0.0949	-0.0304	-0.0395	0.0019	-0.0125	0.0417	–	-0.0323	-0.025	-0.031	0.005	-0.0086	-0.0415	0.0286	-0.0626	0.0171
C=CCn1c(=O)c2cnc(Nc3ccc(N4CCN(C)CC4)cc3)nc2n1-c1cccc(C(C)(C)O)n1 [AZD1775] + C[C@@H]1COCCN1C2=NC(=NC(=C2)C3(CC3)[S@](=N)(=O)C)C4=C5C=CNC5=NC=C4 [AZD6738] (first compound max 1 µM, partner max 10 µM)	0.0222	-0.0161	-0.0327	0.0928	0.04	0.0099	0.0196	0.0012	0.0097	0.0304	0.0509	0.0554	0.113	-0.0302	-0.0076	0.0145	0.0072	-0.0064	-0.0285	-0.0128
C=CCn1c(=O)c2cnc(Nc3ccc(N4CCN(C)CC4)cc3)nc2n1-c1cccc(C(C)(C)O)n1 [AZD1775] + O=C(c1cc(Cc2n[nH]c(=O)c3ccccc23)ccc1F)N1CCN(C(=O)C2CC2)CC1 [Olaparib] (first compound max 1 µM, partner max 10 µM)	-0.0094	-0.0795	-0.035	-0.0021	-0.0925	0.0311	-0.0243	-0.0237	0.0299	-0.0323	0.0465	0.0051	0.0351	-0.0095	-0.0747	-0.0327	0.0183	-0.0294	-0.0947	-0.0321
CCN(CCO)CCCOc1ccc2c(Nc3cc(CC(=O)Nc4cccc(F)c4)[nH]n3)ncnc2c1 [AZD2811] + C=CCn1c(=O)c2cnc(Nc3ccc(N4CCN(C)CC4)cc3)nc2n1-c1cccc(C(C)(C)O)n1 [AZD1775] (first compound max 1 µM, partner max 1 µM)	0.0311	-0.0433	-0.0708	-0.0412	-0.0099	-0.0318	-0.0522	0.0277	0.0033	-0.0336	-0.0792	0.0111	-0.0154	-0.0236	-0.0402	0.025	-0.0239	0.0185	-0.0544	0.0048
CCN(CCO)CCCOc1ccc2c(Nc3cc(CC(=O)Nc4cccc(F)c4)[nH]n3)ncnc2c1 [AZD2811] + C[C@@H]1COCCN1C2=NC(=NC(=C2)C3(CC3)[S@](=N)(=O)C)C4=C5C=CNC5=NC=C4 [AZD6738] (first compound max 1 µM, 7x7, partner max 10 µM)	0.0002	-0.0802	-0.069	-0.0736	-0.0598	-0.0316	-0.056	-0.0207	-0.0473	-0.0153	-0.0479	-0.0531	-0.0269	-0.0493	-0.0657	-0.0375	-0.0794	-0.028	-0.0358	0.0151
CCN(CCO)CCCOc1ccc2c(Nc3cc(CC(=O)Nc4cccc(F)c4)[nH]n3)ncnc2c1 [AZD2811] + O=C(c1cc(Cc2n[nH]c(=O)c3ccccc23)ccc1F)N1CCN(C(=O)C2CC2)CC1 [Olaparib] (first compound max 1 µM, 7x7, partner max 10 µM)	0.0228	-0.0581	-0.0448	-0.04	-0.0475	-0.114	-0.0049	-0.0474	-0.0253	-0.035	-0.0457	-0.0108	-0.0051	0.005	-0.0179	-0.0043	-0.0238	0.0384	-0.0701	0.0541
COc1nnc2ccc(N3CCC(c4ccc(OCCN5CCN(C)C(=O)[C@H]5C)cc4)CC3)nn12 [AZD5153] + CN(CC[C@H](CSC1=CC=CC=C1)NC2=C(C=C(C=C2)S(=O)(=O)NC(=O)C3=CC=C(C=C3)N4CCC(CC4)[C@H](C5=CC=CC=C5C6=CC=C(C=C6)Cl)O)S(=O)(=O)C(F)(F)F)CCO [AZD4320] (first compound max 1 µM, 7x7, partner max 1 µM)	0.048	0.0126	–	-0.0062	–	0.134	–	0.0297	–	-0.0595	–	–	0.0914	0.055	-0.0517	-0.0277	–	0.0239	–	0.0694
Cc1c2c(nn1C)CSCc1cc(n(C)n1)CSc1cc(c3ccccc3c1)OCCCc1c(C(=O)O)n(C)c3c-2c(Cl)ccc13 [AZD5991] + CCN(CCO)CCCOc1ccc2c(Nc3cc(CC(=O)Nc4cccc(F)c4)[nH]n3)ncnc2c1 [AZD2811] (first compound max 1 µM, 7x7, partner max 1 µM)	0.0689	0.0095	0.0097	-0.0342	0.0453	0.058	–	0.095	-0.0173	-0.0194	0.0337	-0.028	0.0647	-0.0096	0.019	0.0096	0.0311	0.0543	-0.068	0.134
CC(=O)c1c(C)c2cnc(Nc3ccc(N4CCNCC4)cn3)nc2n(C2CCCC2)c1=O [Palbociclib] + CN(CC[C@H](CSC1=CC=CC=C1)NC2=C(C=C(C=C2)S(=O)(=O)NC(=O)C3=CC=C(C=C3)N4CCC(CC4)[C@H](C5=CC=CC=C5C6=CC=C(C=C6)Cl)O)S(=O)(=O)C(F)(F)F)CCO [AZD4320] (first compound max 10 µM, 7x7, partner max 1 µM)	-0.0213	-0.0677	–	0.0564	–	-0.0286	–	-0.004	–	0.0075	–	–	-0.0429	-0.0628	-0.119	-0.121	–	0.0145	–	-0.0634
CCc1c2c(nc3ccc(O)cc13)-c1cc3c(c(=O)n1C2)COC(=O)[C@]3(O)CC [SN-38] + O=C(c1cc(Cc2n[nH]c(=O)c3ccccc23)ccc1F)N1CCN(C(=O)C2CC2)CC1 [Olaparib] (first compound max 0.3 µM, 7x7, partner max 10 µM)	0.023	–	-0.0493	0.0708	0.0785	–	0.0227	–	0.0494	0.0645	0.13	0.0577	0.0986	0.0623	0.0015	0.0978	0.105	0.0336	0.0739	–
C[C@@H](c1ccc2nccn2c1)n1nnc2ncc(-c3cnn(C)c3)nc21 [Savolitinib] + CN(CC[C@H](CSC1=CC=CC=C1)NC2=C(C=C(C=C2)S(=O)(=O)NC(=O)C3=CC=C(C=C3)N4CCC(CC4)[C@H](C5=CC=CC=C5C6=CC=C(C=C6)Cl)O)S(=O)(=O)C(F)(F)F)CCO [AZD4320] (first compound max 1 µM, 7x7, partner max 1 µM)	-0.0581	-0.0318	–	-0.0183	–	-0.0256	–	-0.006	–	-0.022	–	–	-0.0388	0	-0.0262	-0.0522	–	0.0014	–	-0.034
